This is an account of results in US20240366612A1, “COMPOUNDS AND METHODS FOR MODULATING NUCLEIC ACID SPLICING” (REMIX THERAPEUTICS INC., priority 2021, published 2024).

In one data set the test system is MYB CJ mRNA. Kind of data set: Gene panel canonical junction qPCR assay, MYB. As to conditions: Homo sapiens, larger gene panel, read-out: MYB IC50 (decrease in CJ mRNA levels). It is filed as cell-based. Summed up: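 A673 or K562 cells treated 24 h with 11-point 3-fold dilutions (top 10 µM, ≤0.25% DMSO) at 37 °C. Canonical exon-junction mRNA measured by probe-based RT-qPCR, normalized to GAPDH, GUSB or PPIA and DMSO (2^−ΔΔCt), converted to percent response over a fixed ΔCt window; IC50 from 4-parameter fit.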
On the technique in general: In qPCR the cycle at which signal appears reflects the starting amount.

Data set [1] is described as follows: Cell Titer Glo 2.0 cell viability assay. To be noted: human, K562 cells. On the technique in general: ATP-based viability assays read luminescence as a measure of living cells.
Data set [2] deals with HiBiT-tagged HTT protein in K562 cells. Kind of data set: HiBiT protein abundance assay, HTT. It is filed as cell-based, human. As to conditions: HiBiT-modified K562 cells, 24 hours, luminescence. In a few lines: (§1)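 K562 lines with the endogenous target HiBiT-tagged, seeded in IMDM+1% FBS, got a 10-point 3-fold dilution series (top final 10 μM, DMSO ≤0.25%) for 24 hours at 37° C. Lytic LgBiT luminescence was normalized against unmodified-K562 and DMSO-only controls, and IC50 was interpolated at 50% from a four-parameter logistic fit.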
For orientation: HiBiT is a short tag that completes a luciferase, so light tracks the accessible tagged protein.

Data set [3] deals with HiBiT-tagged Target C protein in K562 cells. Description: HiBiT protein abundance assay, Target C. It is filed as cell-based, human. As to conditions: HiBiT-modified K562 cells, 24 hours, luminescence. Summed up:
as §1

SMILES strings stand for the structures. pIC50: −log10 of the molar value.

Usually pIC50 stands for −log10 of the IC50, conventionally taken in molar units. The GI50 is the concentration that inhibits growth by half. Read a low GI50 as more potent growth inhibition. Regarding `Cc1cn2cc(-n3ccc4cc(C5CCNCC5)sc4c3=O)cc(F)c2n1` [Compound 801, 6-[8-fluoro-2-methylimidazo[1,2-a]pyridin-6-yl]-2-(piperidin-4-yl)thieno[2,3-c]pyridin-7-one], the pIC50 (with MYB CJ mRNA; in data set [2]; in data set [3]) was < 5.00 each time. In addition, the 50% growth inhibitory concentration (GI50) at 72 h in data set [1] was > 10000 nM.

For the compound `Cc1cc(-c2cc3cnn(C4CCNCC4)c(=O)c3s2)cc2cn(C)nc12` [Compound 802, 2-(2,7-dimethyl-2H-indazol-5-yl)-6-(piperidin-4-yl)thieno[2,3-d]pyridazin-7(6H)-one], the values for the pIC50 (in the data set with MYB CJ mRNA; in data set [2]; in data set [3]) were 6.00 to 7.00, > 7.00 and 6.00 to 7.00, respectively. The compound further returned a GI50 at 72 h in data set [1] of 100 to 1000 nM.

Take `Cc1cn2cc(-c3cc4ccn(C5CCNCC5)c(=O)c4s3)cc(F)c2n1` [Compound 804, 2-(8-fluoro-2-methylimidazo[1,2-a]pyridin-6-yl)-6-(piperidin-4-yl)thieno[2,3-c]pyridin-7(6H)-one]: the pIC50 (in the data set with MYB CJ mRNA; in data set [2]; in data set [3]) was 6.00 to 7.00 each time. Further, in data set [1], the GI50 at 72 h is 100 to 1000 nM.

Regarding `Cc1cc(-c2cc3ccn(C4CCNCC4)c(=O)c3s2)cc2cn(C)nc12` [Compound 805, 2-(2,7-dimethyl-2H-indazol-5-yl)-6-(piperidin-4-yl)thieno[2,3-c]pyridin-7(6H)-one], the pIC50 (in the data set with MYB CJ mRNA; in data set [2]; in data set [3]) was 6.00 to 7.00 in each case. In data set [1], this compound came in with a GI50 at 72 h of 1000 to 10000 nM.

Regarding `Cc1cn2nc(-c3cc4ccn(C5CCNCC5)c(=O)c4s3)cc(C)c2n1` [Compound 806, 2-(2,8-dimethylimidazo[1,2-b]pyridazin-6-yl)-6-(piperidin-4-yl)thieno[2,3-c]pyridin-7(6H)-one], the pIC50 (with MYB CJ mRNA; in data set [2]; in data set [3]) was 6.00 to 7.00 each time. The compound further registered a 50% growth inhibitory concentration (GI50) at 72 h in data set [1] of 100 to 1000 nM.

On to `Cc1cn2cc(-c3cc4ccn(C5CCN(C)CC5)c(=O)c4s3)cc(F)c2n1` [Compound 808, 2-(8-fluoro-2-methylimidazo[1,2-a]pyridin-6-yl)-6-(1-methylpiperidin-4-yl)thieno[2,3-c]pyridin-7(6H)-one], for which the pIC50 in the data set with MYB CJ mRNA was 6.00 to 7.00; in data set [2], 6.00 to 7.00; in data set [3], 5.00 to 6.00. The 50% growth inhibitory concentration (GI50) at 72 h in data set [1] was in the range of 100 to 1000 nM.

Take `Cc1cn2nc(-c3cc4ccn(C5CCN(C)CC5)c(=O)c4s3)cc(C)c2n1` [Compound 809]: the pIC50 (in the data set on MYB CJ mRNA; in data set [2]; in data set [3]) was 5.00 to 6.00 each time. In addition, the GI50 at 72 h in data set [1] was 1000 to 10000 nM.

For the compound `Cc1cn2nc(-c3nc4cnn(C5CCNCC5)c(=O)c4s3)cc(C)c2n1` [Compound 810], the negative logarithm of the IC50 (pIC50) (in the data set on MYB CJ mRNA; in data set [2]; in data set [3]) was 6.00 to 7.00 throughout. This compound registered a concentration for 50% growth inhibition (GI50) at 72 h in data set [1] of 100 to 1000 nM.

On to `Cc1nc(-c2nc3cnn(C4CCNCC4)c(=O)c3s2)cc2cn(C)nc12` [Compound 811], for which the negative-log IC50 (pIC50) in the data set with MYB CJ mRNA was 5.00 to 6.00; in data set [2], 5.00 to 6.00; in data set [3] it was < 5.00. Further, the 50% growth inhibitory concentration (GI50) at 72 h in data set [1] fell in the range of 1000 to 10000 nM.

With `Cc1cn2cc(-c3nc4cnn(C5CCNCC5)c(=O)c4s3)nc(C)c2n1` [Compound 812, 2-(2,8-dimethylimidazo[1,2-a]pyrazin-6-yl)-6-(piperidin-4-yl)thiazolo[4,5-d]pyridazin-7(6H)-one], the results for the pIC50 (in the data set with MYB CJ mRNA; in data set [2]; in data set [3]) were < 5.00, 6.00 to 7.00 and 6.00 to 7.00, respectively. In data set [1], this compound came in with a concentration for 50% growth inhibition (GI50) at 72 h of 100 to 1000 nM.
